In PMC5814057, “Folic acid derived-P5779 mimetics regulate DAMP-mediated inflammation through disruption of HMGB1:TLR4:MD-2 axes” (PLoS ONE, 2018):
Each block holds one molecule with its values, some of them ahead of it.

Columns and labels:
[1] = biological target: T1, MD-2 (Homo sapiens, UniProt Q9Y6Y9); experiment: SPR direct binding to immobilized MD-2 (Biacore T200); settings: MD-2 immobilized on CM5 chip
T1 construct: purchased R&D Systems 1787-MD
T1 sequence (Q9Y6Y9 19-160): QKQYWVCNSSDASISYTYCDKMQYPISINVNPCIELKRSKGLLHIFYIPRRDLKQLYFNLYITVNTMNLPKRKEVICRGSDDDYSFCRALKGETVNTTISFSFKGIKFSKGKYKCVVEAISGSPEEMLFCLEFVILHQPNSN
Experimental: (§1) Biacore T200 (GE Healthcare, USA) was used for real-time binding interaction studies. […] For binding analyses, CM5 series chips (GE Healthcare) were activated and the reference flow-cell was blocked by 1 M ethanolamine (pH = 8.5). The ligand protein MD-2 dilution (10 ug/mL in 10 mM Acetate buffer pH 5) or HMGB1 (20 ug/mL in 10 mM acetate buffer pH = 4.5) or TLR4/MD2 complex (10 ug/mL in 10 mM acetate buffer pH 4.5) were subjected to the sample flow-cell at the flow rate of 10 uL/min until the surface Plasmon resonance reached 1000–2000 RU. Analytes (Folic acid analogues) diluted into 5 different concentrations were sequentially injected at a flow rate of 30uL/min for 60s or 120s (TLR4/MD-2). The dissociation time was set for 1 minute or 2 minutes (TLR4/MD-2). The equilibrium dissociation constant (KD) was obtained to evaluate the binding affinity by using the BIAEvaluation 2.0 software (GE Healthcare) supposing a 1:1 binding ratio. At least 3 independent experiments were performed.

[2] = tested on: HMGB1; experiment: SPR direct binding to immobilized HMGB1
Experimental: as §1

[3] = biological target: T2, TLR4/MD-2 complex (Homo sapiens, UniProt O00206+Q9Y6Y9); experiment: SPR direct binding to immobilized TLR4/MD-2 complex; settings: TLR4/MD-2 complex immobilized
T2 construct: purchased R&D Systems 3146-TM-050
Experimental: Biacore T200 (GE Healthcare, USA) was used for real-time binding interaction studies. Recombinant human TLR4/MD2 (R&D 3146-TM-050) complex protein and MD2 (R&D 1787-MD) protein were purchased from R&D Systems (Minneapolis, USA). For binding analyses, CM5 series chips (GE Healthcare) were activated and the reference flow-cell was blocked by 1 M ethanolamine (pH = 8.5). The ligand protein MD-2 dilution (10 ug/mL in 10 mM Acetate buffer pH 5) or HMGB1 (20 ug/mL in 10 mM acetate buffer pH = 4.5) or TLR4/MD2 complex (10 ug/mL in 10 mM acetate buffer pH 4.5) were subjected to the sample flow-cell at the flow rate of 10 uL/min until the surface Plasmon resonance reached 1000–2000 RU. Analytes (Folic acid analogues) diluted into 5 different concentrations were sequentially injected at a flow rate of 30uL/min for 60s or 120s (TLR4/MD-2). The dissociation time was set for 1 minute or 2 minutes (TLR4/MD-2). The equilibrium dissociation constant (KD) was obtained to evaluate the binding affinity by using the BIAEvaluation 2.0 software (GE Healthcare) supposing a 1:1 binding ratio. At least 3 independent experiments were performed.

[4] = Stability of compound noted for the SPR experiment; type: physicochemical; settings: excluded from the SPR experiment

T2 sequence (O00206 24-631 limits assumed): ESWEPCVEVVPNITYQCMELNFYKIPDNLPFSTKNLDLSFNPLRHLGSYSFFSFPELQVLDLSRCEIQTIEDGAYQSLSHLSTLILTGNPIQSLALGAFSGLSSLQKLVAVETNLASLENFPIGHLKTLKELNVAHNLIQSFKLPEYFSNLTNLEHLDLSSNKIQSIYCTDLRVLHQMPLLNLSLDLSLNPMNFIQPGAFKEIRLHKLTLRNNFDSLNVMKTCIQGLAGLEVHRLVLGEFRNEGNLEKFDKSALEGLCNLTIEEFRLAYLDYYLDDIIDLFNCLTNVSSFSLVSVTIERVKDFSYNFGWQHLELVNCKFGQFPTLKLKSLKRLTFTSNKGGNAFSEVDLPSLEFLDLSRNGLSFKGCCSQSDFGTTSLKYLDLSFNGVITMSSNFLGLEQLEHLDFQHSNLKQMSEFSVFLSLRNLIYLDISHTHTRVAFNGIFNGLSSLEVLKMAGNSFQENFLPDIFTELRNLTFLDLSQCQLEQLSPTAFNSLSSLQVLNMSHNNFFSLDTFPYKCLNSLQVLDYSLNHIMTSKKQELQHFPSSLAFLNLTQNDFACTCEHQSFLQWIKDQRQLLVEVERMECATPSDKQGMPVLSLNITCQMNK
T2 sequence (Q9Y6Y9 17-160 limits assumed): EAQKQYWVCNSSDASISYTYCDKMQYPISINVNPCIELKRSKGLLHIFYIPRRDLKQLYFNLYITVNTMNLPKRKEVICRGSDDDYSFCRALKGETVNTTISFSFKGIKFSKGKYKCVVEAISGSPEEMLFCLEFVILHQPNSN

SMILES: C#CCC(Cc1cnc2nc(N)nc(N)c2n1)c1ccc(C(=O)N[C@@H](CCC(=O)O)C(=O)O)cc1 (stereo partly drawn) [Pralatrexate, pralatrexate]
Kd ([1]; 1:1 binding): 1.87 µM

SMILES: CN(Cc1cnc2nc(N)nc(N)c2n1)c1ccc(C(=O)N[C@@H](CCC(=O)O)C(=O)O)cc1 [Methotrexate, methotrexate]
Kd [1]: 0.214 µM
binding to HMGB1 [2]: no binding

SMILES: Nc1nc(N)c2nc(CNc3ccc(C(=O)N[C@@H](CCC(=O)O)C(=O)O)cc3)cnc2n1 [Aminopterin, aminopterin]
Kd [1]: 0.301 µM

More lines, now with the values ahead:

Kd ([1]; 1:1 binding): 15 µM
SMILES: Nc1nc2c(c(=O)[nH]1)N(C=O)C(CNc1ccc(C(=O)N[C@@H](CCC(=O)O)C(=O)O)cc1)CN2 (stereo partly drawn) [Leucovorin, leucovorin]

binding to MD-2 (in words) [1]: moderate binding
Kd ([1]; 1:1 binding): 2.39 µM
Kd [3]: 0.537 µM
SMILES: Nc1nc(=O)c2nc(CNc3ccc(C(=O)N[C@@H](CCC(=O)O)C(=O)O)cc3)cnc2[nH]1 [Folic acid, folic acid]

stability [4]: decomposition over time
SMILES: Nc1nc(=O)c2c([nH]1)NCC(CNc1ccc(C(=O)NC(CCC(=O)O)C(=O)O)cc1)N2 (stereo not drawn) [Tetrahydrofolic acid, tetrahydrofolic acid]
